# Tests used:
# Assay type in all cases: cell-based, human
# [1] = system: promoters of CCL5, CXCL9, CXCL10 and CXCL11; experiment: ChIP-qPCR on chemokine promoters; details: SCC23 cells
# Method: ChIP-qPCR assays were performed as previously described (Ding et al, 2013). Briefly, SCC cells were sequentially treated with dimethyl 3,3′-dithiobispropionimidate-HCl (DTBP; Cat #20665, Thermo Fisher Scientific) solution and formaldehyde, and harvested with a cell scraper. The cell pellet was lysed with ChIP lysis buffer and sonicated to generate 200-500 bp DNA fragments with a sonicator. The fragmented chromatins were immunoprecipitated with anti-BMI1 (Cell Signaling Technology, Cat #6964), anti-Ubiquityl-Histone H2A (Lys119) (Cell Signaling Technology, Cat #8240) overnight at 4° C. The precipitated DNA-chromatin products were purified with ChIP DNA clean & concentrator kit (Cat #D5205, Zymo Research) and the DNA levels were quantified by qPCR. Data is presented as the percentage of input DNA.
# [2] = system: CCL5, CXCL9, CXCL10, and CXCL11; experiment: qRT-PCR and ELISA of CCL5, CXCL9, CXCL10, CXCL11 in SCC cells; details: SCC1 and SCC23 cells
# Method: (§1) For qRT-PCR, total RNA was prepared using TRIzol reagent (Thermo Fisher Scientific Cat #15596026), and 1 μg of RNA was reversely transcribed with random primer (Thermo Fisher Scientific Cat #48190011), dNTP mix (Thermo Fisher Scientific, Cat #18427013), and M-MuLV Reverse Transcriptase (New England Biolabs, Cat #M0253L). The levels of mRNA were […] measured using a SYBRGreen supermix (Bio-Rad, Cat #1708880). GAPDH was used as an internal control.
# Cells were lysed using the radioimmunoprecipitation assay (RIPA) buffer (Sigma-Aldrich, Cat #R0278) added with a cocktail of protease inhibitors (Thermo Fisher Scientific, Cat ##78430) and phosphatase inhibitors (Sigma-Aldrich, Cat #4906845001). Protein extracts were resolved on a 10% or 15% SDS polyacrylamide gel and then transferred to a polyvinylidene difluoride membrane. Membranes were blocked with 5% milk for 1 h and incubated with primary antibodies overnight at 4° C. […] The signals were detected using the Clarity Western ECL kit (Bio-Rad, Cat #1705060). […] After treatment, supernatants were collected, and the protein levels of CCL5, CXCL9, CXCL10 and CXCL11 were measured with ELISA (R&D Systems, Cat #DRN00B, DCX900, DIP100, DCX110) according to the manufacturer's instructions.
# SCC23 cells = experiment: qRT-PCR of ATM, DNA-PKcs, MRE11, JUN, FOSL1, MMP3, MMP9 in SCC23 cells
# Method: as §1
smiles,measurement,setting,value
"COc1cc(Br)c(Nc2nc(-c3c(C)nc4ncccn34)cs2)c(Br)c1 [PTC209, N-(2,6-dibromo-4-methoxyphenyl)-4-(2-methylimidazo[1,2-a]pyrimidin-3-yl)thiazol-2-amine]","levels of BMI1 on the promoters of CCL5, CXCL9, CXCL10 and CXCL11",[1],significantly reduced the levels of BMI1 on these promoters in SCC23 cells
same,"levels of H2AUb marks on the promoters of CCL5, CXCL9, CXCL10 and CXCL11",[1],significantly decreased in SCC23 cells
same,"expression of CCL5, CXCL9, CXCL10, and CXCL11",[2],"significantly increased the expression of CCL5, CXCL9, CXCL10, and CXCL11 in both SCC1 and SCC23 cells"
same,"ATM, DNA-PKcs, and MRE11 mRNA expression",SCC23 cells,"does not affect the expression of ATM, DNA-PKcs, and MRE11"
same,"JUN, FOSL1, MMP3, and MMP9 mRNA expression",SCC23 cells,"does not change the expression of JUN, FOSL1, MMP3, and MMP9 significantly"

# Reference: patent publication US20230233566A1, “INHIBITION OF BMI1 ELIMINATES CANCER STEM CELLS AND ACTIVATES ANTITUMOR IMMUNITY” (The Regents of the University of California, priority 2020, published 2023)
